Marks after values point to notes of the source that are not given here.
Assay: 4-week repeat-dose toxicology study in rats with 2-week recovery (Study 20000328)
[1] = 250 mg/kg F, end of dosing, animals of 10
[2] = 250 mg/kg F, end of recovery, animals of 5
[3] = 250 mg/kg M, end of dosing, animals of 10
[4] = 250 mg/kg M, end of recovery, animals of 5

COC1=C(OC)C(=O)C(C/C=C(\C)CC/C=C(\C)CC/C=C(\C)CC/C=C(\C)CC/C=C(\C)CC/C=C(\C)CC/C=C(\C)CC/C=C(\C)CC/C=C(\C)CCC=C(C)C)=C(C)C1=O [CoQ10, Coenzyme Q10]
35* IU/L: ALT (250 mg/kg M, end of dosing)
2: Spleen Histiocytic Infiltration, Marked [1] | Gross Pathology: Enlarged Spleen [2] | Liver Histiocytic Infiltration, Moderate [3] | Adrenal Gland Vacuolation, Mild [4] | Adrenal Gland Vacuolation, Moderate [4] | Liver Focal Necrosis [4] | Lymph Node, Man. Histiocytic Infiltration, Minimal [4] | Lymph Node, Man. Histiocytic Infiltration, Moderate [4]
−12.6%: Body Weight, percent difference from controls (250 mg/kg F, end of recovery)
96* IU/L: ALT (250 mg/kg M, end of recovery)
0.14* 10^3/cmm: Eosinophils (250 mg/kg M, end of dosing)
10: Spleen Histiocytic Infiltration [1] | Adrenal Gland Vacuolation [3] | Gross Pathology: Pale Liver [3] | Injection Site Mononuclear Cell Infiltration [3] | Liver Histiocytic Infiltration [3] | Liver Vacuolation [3] | Liver Vacuolation, Mild [3] | Spleen Histiocytic Infiltration [3]
12.9* g/dL: Hemoglobin (250 mg/kg M, end of dosing)
6: Lymph Node, Man. Histiocytic Infiltration, Moderate [3]
5: Adrenal Gland Vacuolation [2] | Gross Pathology: Pale Liver [2] | Liver Histiocytic Infiltration [2] | Liver Vacuolation [2] | Liver Vacuolation, Moderate [2] | Lymph Node, Man. Histiocytic Infiltration [2] | Lymph Node, Mes. Histiocytic Infiltration [2] | Lymph Node, Mes. Histiocytic Infiltration, Mild [2] | Ovary Histiocytic Infiltration [2] | Spleen Histiocytic Infiltration [2] | Adrenal Gland Vacuolation, Mild [3] | Adrenal Gland Vacuolation, Moderate [3] | Gross Pathology: Enlarged Pancreatic Lymph Nodes [3] | Gross Pathology: Pale Liver [4] | Liver Histiocytic Infiltration [4] | Liver Vacuolation [4] | Liver Vacuolation, Moderate [4] | Lymph Node, Man. Histiocytic Infiltration [4] | Lymph Node, Mes. Histiocytic Infiltration [4] | Lymph Node, Mes. Histiocytic Infiltration, Mild [4] | Spleen Histiocytic Infiltration [4]
−14.1%: Food Consumption, percent difference from controls (250 mg/kg M, end of recovery)
8: Gross Pathology: Pale Lymph Nodes [3]
12.58 10^3/cmm: Lymphocytes (250 mg/kg M, end of dosing)
15.55* 10^3/cmm: Leukocytes (250 mg/kg M, end of dosing)
63* IU/L: ALT (250 mg/kg F, end of recovery)
+7.6%: Liver weight (absolute), percent difference from controls (250 mg/kg M, end of recovery)
−15.0* %: Body Weight, percent difference from controls (250 mg/kg M, end of recovery)
+0.7%: Food Consumption, percent difference from controls (250 mg/kg F, end of recovery)
+11.0%: Liver weight (absolute), percent difference from controls (250 mg/kg M, end of dosing)
1: Spleen Histiocytic Infiltration, Mild [1] | Adrenal Gland Vacuolation, Marked [2] | Liver Focal Necrosis [2] | Liver Focal Necrosis, Mild [2] | Liver Histiocytic Infiltration, Mild [2] | Liver Multifocal Necrosis [2] | Liver Multifocal Necrosis, Moderate [2] | Lymph Node, Man. Histiocytic Infiltration, Minimal [2] | Lymph Node, Man. Histiocytic Infiltration, Moderate [2] | Ovary Histiocytic Infiltration, Moderate [2] | Spleen Histiocytic Infiltration, Minimal [2] | Injection Site Mononuclear Cell Infiltration, Marked [3] | Liver Histiocytic Infiltration, Minimal [3] | Lymph Node, Mes. Histiocytic Infiltration, Minimal [3] | Lymph Node, Mes. Histiocytic Infiltration, Moderate [3] | Spleen Histiocytic Infiltration, Marked [3] | Liver Focal Necrosis, Mild [4] | Liver Histiocytic Infiltration, Minimal [4] | Liver Multifocal Necrosis [4] | Liver Multifocal Necrosis, Mild [4] | Lymph Node, Man. Histiocytic Infiltration, Mild [4] | Spleen Histiocytic Infiltration, Marked [4] | Spleen Histiocytic Infiltration, Moderate [4]
40.4* %: Hematocrit (250 mg/kg M, end of dosing)
+65.9%: Spleen weight (absolute), percent difference from controls (250 mg/kg M, end of dosing)
14.7 s: APPT (250 mg/kg F, end of recovery)
4: Adrenal Gland Vacuolation, Moderate [2] | Gross Pathology: Pale Iliac Lymph Node [2] | Gross Pathology: Pale Ovaries [2] | Liver Histiocytic Infiltration, Moderate [2] | Ovary Histiocytic Infiltration, Mild [2] | Spleen Histiocytic Infiltration, Mild [2] | Bone Marrow, Sternum Hyperplasia [3] | Bone Marrow, Sternum Hyperplasia, Mild [3] | Gross Pathology: Pale Adrenal [3] | Adrenal Gland Vacuolation [4] | Gross Pathology: Enlarged Spleen [4] | Liver Histiocytic Infiltration, Mild [4]
15.3* seconds: APPT (250 mg/kg M, end of recovery)
7: Spleen Histiocytic Infiltration, Moderate [1] | Liver Histiocytic Infiltration, Mild [3] | Lymph Node, Mes. Histiocytic Infiltration, Mild [3]
9: Injection Site Mononuclear Cell Infiltration, Moderate [3] | Lymph Node, Man. Histiocytic Infiltration [3] | Lymph Node, Mes. Histiocytic Infiltration [3] | Spleen Histiocytic Infiltration, Moderate [3]
−16.4* %: Food Consumption, percent difference from controls (250 mg/kg M, end of dosing)
113* IU/L: AST (250 mg/kg M, end of dosing)
−17.6* %: Body Weight, percent difference from controls (250 mg/kg M, end of dosing)
+82.7* %: Spleen weight (absolute), percent difference from controls (250 mg/kg F, end of recovery)
2.13* 10^3/cmm: Neutrophils (250 mg/kg M, end of dosing)
153* IU/L: AST (250 mg/kg F, end of recovery)
6.23 10^6/cmm: Erythrocytes (250 mg/kg M, end of dosing)
0.42 IU/L: GGT (250 mg/kg M, end of recovery)
14.7* seconds: APPT (250 mg/kg M, end of dosing)
213* IU/L: AST (250 mg/kg M, end of recovery)
3: Gross Pathology: Pale Pancreatic Lymph Node [2] | Lymph Node, Man. Histiocytic Infiltration, Mild [2] | Gross Pathology: Pale Pituitary [3] | Lymph Node, Man. Histiocytic Infiltration, Mild [3] | Gross Pathology: Pale Iliac Lymph Node [4] | Gross Pathology: Pale Pancreatic Lymph Node [4] | Spleen Histiocytic Infiltration, Mild [4]
0.58* IU/L: GGT (250 mg/kg F, end of recovery)
0: Adrenal Gland Vacuolation, Mild [2] | Adrenal Gland Vacuolation, Minimal [2] | Liver Focal Necrosis, Minimal [2] | Liver Histiocytic Infiltration, Minimal [2] | Liver Multifocal Necrosis, Mild [2] | Liver Vacuolation, Mild [2] | Liver Vacuolation, Minimal [2] | Lymph Node, Mes. Histiocytic Infiltration, Minimal [2] | Ovary Histiocytic Infiltration, Minimal [2] | Spleen Histiocytic Infiltration, Marked [2] | Spleen Histiocytic Infiltration, Moderate [2] | Died or Sacrificed Moribund (250 mg/kg M, animals of 15) | Adrenal Gland Vacuolation, Minimal [3] | Bone Marrow, Sternum Hyperplasia, Minimal [3] | Gross Pathology: Pale SQ Skin [3] | Injection Site Mononuclear Cell Infiltration, Mild [3] | Injection Site Mononuclear Cell Infiltration, Minimal [3] | Liver Focal Necrosis [3] | Liver Focal Necrosis, Minimal [3] | Liver Vacuolation, Minimal [3] | Lymph Node, Man. Histiocytic Infiltration, Minimal [3] | Skin, Dermis Histiocytic Infiltration [3] | Skin, Dermis Histiocytic Infiltration, Marked [3] | Skin, Dermis Histiocytic Infiltration, Mild [3] | Skin, Dermis Histiocytic Infiltration, Moderate [3] | Skin, SQ Histiocytic Infiltration [3] | Skin, SQ Histiocytic Infiltration, Mild [3] | Spleen Histiocytic Infiltration, Mild [3] | Adrenal Gland Vacuolation, Marked [4] | Adrenal Gland Vacuolation, Minimal [4] | Liver Focal Necrosis, Minimal [4] | Liver Histiocytic Infiltration, Moderate [4] | Liver Multifocal Necrosis, Moderate [4] | Liver Vacuolation, Mild [4] | Liver Vacuolation, Minimal [4] | Lymph Node, Mes. Histiocytic Infiltration, Minimal [4] | Spleen Histiocytic Infiltration, Minimal [4]
0.16 IU/L: GGT (250 mg/kg M, end of dosing)
+19.6%: Liver weight (absolute), percent difference from controls (250 mg/kg F, end of recovery)
+38.7* %: Spleen weight (absolute), percent difference from controls (250 mg/kg M, end of recovery)
